From US20250263370A1 (Tay Therapeutics Limited, priority 2022, published 2025)
Values joined by “and” are separate entries in the source; they are usually repeats but may differ in a detail not shown here. Identical values can stand only once.

System: collagen-induced arthritis
Test: Collagen-induced arthritis (CIA) model in rats: body weight, paw volume, clinical scores, clinical observations; as to Average detailed clinical score, left hind limb: key of the grades not given here; as to Average detailed clinical score, right hind limb: key of the grades not given here; as to Detailed Clinical Scores, left forelimb: key of the grades not given here; as to Detailed Clinical Scores, left hind limb: key of the grades not given here; as to Detailed Clinical Scores, right forelimb: key of the grades not given here; as to Detailed Clinical Scores, right hind limb: key of the grades not given here; as to Detailed Clinical Scores, score: key of the grades not given here; as to Detailed Clinical Scores: left forelimb: key of the grades not given here; as to Detailed Clinical Scores: left hind limb: key of the grades not given here; as to Detailed Clinical Scores: right forelimb: key of the grades not given here; as to Detailed Clinical Scores: right hind limb: key of the grades not given here; as to Detailed Clinical Scores: score: key of the grades not given here; as to Mean overall clinical score ± SD: key of the grades not given here; as to overall clinical score: key of the grades not given here
Conditions: for Average detailed clinical score, left forelimb / Average detailed clinical score, left hind limb / Average detailed clinical score, right forelimb / Average detailed clinical score, right hind limb / Average detailed clinical score, score / Mean overall clinical score ± SD / Detailed Clinical Scores, left forelimb / Detailed Clinical Scores, left hind limb / Detailed Clinical Scores, right forelimb / Detailed Clinical Scores, right hind limb / Detailed Clinical Scores, score / Overall clinical score / Detailed Clinical Scores: left forelimb / Detailed Clinical Scores: left hind limb / Detailed Clinical Scores: right forelimb / Detailed Clinical Scores: right hind limb / Detailed Clinical Scores: score: CIA rats; for Detailed Clinical Scores, left forelimb / Detailed Clinical Scores, left hind limb / Detailed Clinical Scores, right forelimb / Detailed Clinical Scores, right hind limb / Detailed Clinical Scores, score / Detailed Clinical Scores: left forelimb / Detailed Clinical Scores: left hind limb / Detailed Clinical Scores: right forelimb / Detailed Clinical Scores: right hind limb / Detailed Clinical Scores: score: individual animals ID 1-8; for Overall clinical score: individual animals #1-8; for Mean animal paw volume ± SD: group mean; for Animal paw volume percent change: individual animals

What does the source list for `C[C@@H]1C[C@H]2[C@@H]3CCC4=CC(=O)C=C[C@]4(C)[C@@]3(F)[C@@H](O)C[C@]2(C)[C@@]1(O)C(=O)CO` [dexamethasone]?
Average detailed clinical score, left forelimb (Day 13): 0.00; Average detailed clinical score, left hind limb (Day 13): 0.00; Average detailed clinical score, right forelimb (Day 13): 0.00; Average detailed clinical score, right hind limb (Day 13): 0.00; Average detailed clinical score, score (Day 13): 0.00; Mean overall clinical score ± SD (Day 13): 0 ± 0; Detailed Clinical Scores, left forelimb (Day 13): 0; Detailed Clinical Scores, left hind limb (Day 13): 0; Detailed Clinical Scores, right forelimb (Day 13): 0; Detailed Clinical Scores, right hind limb (Day 13): 0; Detailed Clinical Scores, score (Day 13): 0; Overall clinical score (Day 13): 0; Mean animal paw volume ± SD (Day 14, L paw): 1.27 mL; Animal paw volume percent change (Day 14, L paw): −8.18% and −5.36% and 0.00% and −4.53% and −1.54% and −5.00% and −3.75% and −8.46%; Mean animal paw volume ± SD (Day 14, R paw): 1.26 mL; Animal paw volume percent change (Day 14, R paw): −5.62% and −2.70% and 0.00% and −8.92% and −2.33% and −7.72% and −5.17% and −8.06%; Average detailed clinical score, left forelimb (Day 14): 0.00; Average detailed clinical score, left hind limb (Day 14): 0.00; Average detailed clinical score, right forelimb (Day 14): 0.00; Average detailed clinical score, right hind limb (Day 14): 0.00; Average detailed clinical score, score (Day 14): 0.00; Mean overall clinical score ± SD (Day 14): 0 ± 0; Detailed Clinical Scores, left forelimb (Day 14): 0; Detailed Clinical Scores, left hind limb (Day 14): 0; Detailed Clinical Scores, right forelimb (Day 14): 0; Detailed Clinical Scores, right hind limb (Day 14): 0; Detailed Clinical Scores, score (Day 14): 0; Overall clinical score (Day 14): 0; Mean animal paw volume ± SD (Day 15, L paw): 1.26 mL; Animal paw volume percent change (Day 15, L paw): −8.92% and −7.28% and −2.17%; Mean animal paw volume ± SD (Day 15, R paw): 1.26 mL; Animal paw volume percent change (Day 15, R paw): −6.74% and −4.25% and −1.45%; Average detailed clinical score, left forelimb (Day 15): 0.00; Average detailed clinical score, left hind limb (Day 15): 0.00; Average detailed clinical score, right forelimb (Day 15): 0.00; Average detailed clinical score, right hind limb (Day 15): 0.00; Average detailed clinical score, score (Day 15): 0.00; Mean overall clinical score ± SD (Day 15): 0 ± 0; Detailed Clinical Scores: left forelimb (Day 15): 0; Detailed Clinical Scores: left hind limb (Day 15): 0; Detailed Clinical Scores: right forelimb (Day 15): 0; Detailed Clinical Scores: right hind limb (Day 15): 0; Detailed Clinical Scores: score (Day 15): 0; Overall clinical score (Day 15): 0; Mean animal paw volume ± SD (Day 18, L paw): 1.29 mL; Animal paw volume percent change (Day 18, L paw): −5.20% and −6.51% and 4.33%; Mean animal paw volume ± SD (Day 18, R paw): 1.29 mL; Animal paw volume percent change (Day 18, R paw): −4.49% and −4.63% and 4.36%; Average detailed clinical score, left forelimb (Day 18): 0.00; Average detailed clinical score, left hind limb (Day 18): 0.00; Average detailed clinical score, right forelimb (Day 18): 0.00; Average detailed clinical score, right hind limb (Day 18): 0.00; Average detailed clinical score, score (Day 18): 0.00; Mean overall clinical score ± SD (Day 18): 0 ± 0; Detailed Clinical Scores: left forelimb (Day 18): 0; Detailed Clinical Scores: left hind limb (Day 18): 0; Detailed Clinical Scores: right forelimb (Day 18): 0; Detailed Clinical Scores: right hind limb (Day 18): 0; Detailed Clinical Scores: score (Day 18): 0; Overall clinical score (Day 18): 0; Mean animal paw volume ± SD (Day 19, L paw): 1.29 mL; Animal paw volume percent change (Day 19, L paw): −5.20% and −6.90%; Mean animal paw volume ± SD (Day 19, R paw): 1.28 mL; Animal paw volume percent change (Day 19, R paw): −5.24% and −6.18%; Average detailed clinical score, left forelimb (Day 19): 0.00; Average detailed clinical score, left hind limb (Day 19): 0.00; Average detailed clinical score, right forelimb (Day 19): 0.00; Average detailed clinical score, right hind limb (Day 19): 0.00; Average detailed clinical score, score (Day 19): 0.00; Mean overall clinical score ± SD (Day 19): 0 ± 0; Detailed Clinical Scores: left forelimb (Day 19): 0; Detailed Clinical Scores: left hind limb (Day 19): 0; Detailed Clinical Scores: right forelimb (Day 19): 0; Detailed Clinical Scores: right hind limb (Day 19): 0; Detailed Clinical Scores: score (Day 19): 0; Overall clinical score (Day 19): 0; Mean animal paw volume ± SD (Day 21, L paw): 1.28 mL; Animal paw volume percent change (Day 21, L paw): −6.32% and −6.90%; Mean animal paw volume ± SD (Day 21, R paw): 1.29 mL; Animal paw volume percent change (Day 21, R paw): −5.99% and −6.18%; Average detailed clinical score, left forelimb (Day 21): 0.00; Average detailed clinical score, left hind limb (Day 21): 0.00; Average detailed clinical score, right forelimb (Day 21): 0.00; Average detailed clinical score, right hind limb (Day 21): 0.00; Average detailed clinical score, score (Day 21): 0.00; Mean overall clinical score ± SD (Day 21): 0 ± 0; Detailed Clinical Scores: left forelimb (Day 21): 0; Detailed Clinical Scores: left hind limb (Day 21): 0; Detailed Clinical Scores: right forelimb (Day 21): 0; Detailed Clinical Scores: right hind limb (Day 21): 0; Detailed Clinical Scores: score (Day 21): 0; Overall clinical score (Day 21): 0
